Tested on: 857933-349-R-J2-PDC complex spheroid viability
Assay: Anticancer human tumor 857933-349-R-J2-PDC patient-derived colon adenocarcinoma cell line growth inhibition [POLQ]
Conditions: for IC50: curve of first compound; for viability, T/C: stronger effect = lower value
In short: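 Patient-derived tumour cells were co-cultured with HUVEC and mesenchymal stem cells as multicellular spheroids at 37 °C. They were treated with POLQ inhibitors (novobiocin, ART-558, RP6685) alone or combined with other agents. Top concentrations were at or near clinical Cmax (otherwise 10 microM; SN-38 at 1 microM), decreasing in half-log steps.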

[1] = second compound 0.0316 µM, first compound 0.0316 µM
[2] = second compound 0.0316 µM, first compound 0.1 µM
[3] = second compound 0.0316 µM, first compound 0.316 µM
[4] = second compound 0.0316 µM, first compound 1 µM
[5] = second compound 0.0316 µM, first compound 3.16 µM
[6] = second compound 0.0316 µM, first compound 10 µM
[7] = second compound 0.1 µM, first compound 0.0316 µM
[8] = second compound 0.1 µM, first compound 0.1 µM
[9] = second compound 0.1 µM, first compound 0.316 µM
[10] = second compound 0.1 µM, first compound 1 µM
[11] = second compound 0.1 µM, first compound 3.16 µM
[12] = second compound 0.1 µM, first compound 10 µM
[13] = second compound 0.316 µM, first compound 0.0316 µM
[14] = second compound 0.316 µM, first compound 0.1 µM
[15] = second compound 0.316 µM, first compound 0.316 µM
[16] = second compound 0.316 µM, first compound 1 µM
[17] = second compound 0.316 µM, first compound 3.16 µM
[18] = second compound 0.316 µM, first compound 10 µM
[19] = second compound 1 µM, first compound 0.0316 µM
[20] = second compound 1 µM, first compound 0.1 µM
[21] = second compound 1 µM, first compound 0.316 µM
[22] = second compound 1 µM, first compound 1 µM
[23] = second compound 1 µM, first compound 3.16 µM
[24] = second compound 1 µM, first compound 10 µM
[25] = second compound 3.16 µM, first compound 0.0316 µM
[26] = second compound 3.16 µM, first compound 0.1 µM
[27] = second compound 3.16 µM, first compound 0.316 µM
[28] = second compound 3.16 µM, first compound 1 µM
[29] = second compound 3.16 µM, first compound 3.16 µM
[30] = second compound 3.16 µM, first compound 10 µM
[31] = second compound 10 µM, first compound 0.0316 µM
[32] = second compound 10 µM, first compound 0.1 µM
[33] = second compound 10 µM, first compound 0.316 µM
[34] = second compound 10 µM, first compound 1 µM
[35] = second compound 10 µM, first compound 3.16 µM
[36] = second compound 10 µM, first compound 10 µM
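Further: spheroids exposed to compounds for seven days before readout.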

Structure (SMILES): CCc1cc2c(N3CCc4c(cc(Cn5ccnc5)cc4-c4cn(C)nc4C(F)(F)F)C3=O)ccnc2c(OC)n1 + Cc1cccc(N(C)C(=O)C2C(O)CCN2c2nc(C)cc(C(F)(F)F)c2C#N)c1
- IC50 (second compound 0.0316 µM): > 10 µM
- IC50 (second compound 0.1 µM): > 10 µM
- IC50 (second compound 0.316 µM): > 10 µM
- IC50 (second compound 1 µM): > 10 µM
- IC50 (second compound 3.16 µM): > 10 µM
- IC50 (second compound 10 µM): > 10 µM
- viability, T/C [1]: 104%
- viability, T/C [2]: 91%
- viability, T/C [3]: 94.5%
- viability, T/C [4]: 82%
- viability, T/C [5]: 77.7%
- viability, T/C [6]: 63.1%
- viability, T/C [7]: 91.6%
- viability, T/C [8]: 92.8%
- viability, T/C [9]: 75.9%
- viability, T/C [10]: 79.5%
- viability, T/C [11]: 77%
- viability, T/C [12]: 54.8%
- viability, T/C [13]: 96.5%
- viability, T/C [14]: 100%
- viability, T/C [15]: 92.4%
- viability, T/C [16]: 97.8%
- viability, T/C [17]: 79.7%
- viability, T/C [18]: 61.1%
- viability, T/C [19]: 122%
- viability, T/C [20]: 103%
- viability, T/C [21]: 93.1%
- viability, T/C [22]: 83.3%
- viability, T/C [23]: 82.5%
- viability, T/C [24]: 72.3%
- viability, T/C [25]: 97.8%
- viability, T/C [26]: 80.1%
- viability, T/C [27]: 83%
- viability, T/C [28]: 88.7%
- viability, T/C [29]: 79.2%
- viability, T/C [30]: 84.8%
- viability, T/C [31]: 96.3%
- viability, T/C [32]: 96.3%
- viability, T/C [33]: 80.1%
- viability, T/C [34]: 73.6%
- viability, T/C [35]: 76.3%
- viability, T/C [36]: 61.9%

Structure (SMILES): CNCc1ccc(-c2[nH]c3cc(F)cc4c3c2CCNC4=O)cc1 + Nc1ccc(C#CCN(C(=O)Cc2ncc(C(F)(F)F)cc2C(F)(F)F)c2ccc(F)cc2)nn1
- IC50 (second compound 0.0316 µM): > 10 µM
- IC50 (second compound 0.1 µM): > 10 µM
- IC50 (second compound 0.316 µM): > 10 µM
- IC50 (second compound 1 µM): > 10 µM
- IC50 (second compound 3.16 µM): > 10 µM
- IC50 (second compound 10 µM): > 10 µM
- viability, T/C [1]: 91.7%
- viability, T/C [2]: 101%
- viability, T/C [3]: 92%
- viability, T/C [4]: 97.1%
- viability, T/C [5]: 101%
- viability, T/C [6]: 98.2%
- viability, T/C [7]: 94.5%
- viability, T/C [8]: 78.7%
- viability, T/C [9]: 85.6%
- viability, T/C [10]: 110%
- viability, T/C [11]: 103%
- viability, T/C [12]: 93.7%
- viability, T/C [13]: 103%
- viability, T/C [14]: 102%
- viability, T/C [15]: 95.3%
- viability, T/C [16]: 94.9%
- viability, T/C [17]: 107%
- viability, T/C [18]: 90.6%
- viability, T/C [19]: 93.4%
- viability, T/C [20]: 101%
- viability, T/C [21]: 98.9%
- viability, T/C [22]: 107%
- viability, T/C [23]: 94.3%
- viability, T/C [24]: 98.2%
- viability, T/C [25]: 96.3%
- viability, T/C [26]: 84.9%
- viability, T/C [27]: 92.1%
- viability, T/C [28]: 104%
- viability, T/C [29]: 97.7%
- viability, T/C [30]: 101%
- viability, T/C [31]: 91.6%
- viability, T/C [32]: 99%
- viability, T/C [33]: 91.2%
- viability, T/C [34]: 93%
- viability, T/C [35]: 100%
- viability, T/C [36]: 92%
